We go through eight compounds from patent US11518747B2, “Solid forms of an N-terminal domain androgen receptor inhibitor and uses thereof” (ESSA Pharma, Inc., priority 2020, dated 2022).

Converted amounts (≈) assume the structure as drawn. A value given as a limit tells only on which side of the number the result lay.

The subject of data set [1] is Androgen-induced PSA-luciferase activity. Description: Androgen-induced PSA (6.1 kb)-luciferase reporter assay in transiently transfected LNCaP cells. It is filed as cell-based. As to conditions: Homo sapiens, R1881 1 nM, 24 h. How it is done:
To determine the IC50, treatments were normalized to the maximum activity with androgen-induction (in the absence of test compounds, vehicle only) (Table 12).
Luciferase Assay: Lysates were thawed on ice then collected into V-bottom 96-well tissue culture plates. Lysates were centrifuged at 4° C. for 5 minutes at 4000 rpm. To measure luminescence of LNCaP cell lysates the Firefly Luciferase Assay System (Promega) was employed, according to manufacturer's protocol.
Comparisons between treatment and control groups were compared using Two-Way ANOVA with post-hoc Dunnett's and Tukey's tests. Differences were considered statistically significant at P values less than 0.05. Densitometric quantification of relative AR levels was determined by Image.

Data set [2] can be described thus: Physical stability of solid forms (drying, storage, slurry; XRPD). It is filed as physicochemical. The settings on record: for XRPD result after stirring: RT, 4 d. How it is done:
Based on experimental conditions to generate Material B and its drying studies, without being bound to any theory, Material B could be a solvated material which can convert to Material C upon drying.
In order to evaluate the relative stability between Form A and Material C, a competitive slurry was performed. About equal amounts (by mass) of Material C (mixture w/some Form A) and Form A were added to acetone so that solids persisted and were stirred at room temperature for 9 days. Solids were isolated by centrifugation using Spin-X centrifuge tubes equipped with a 0.45 μm nylon filter. Beige solids were observed. […] Material C could be an anhydrous material.
Further analyses including ^1H NMR and TGA were also collected on this amorphous sample (Table 10). The ^1H NMR spectrum was consistent with the chemical structure of Compound I and contains trace amount of DCM. By TGA (FIG. 9), about 1.0 wt % loss is observed from 45-200° C., which is likely due to the residual DCM and moisture in the material. The dramatic change in the slope of the TGA thermogram starting at 280° C. (onset) is likely associated with the decomposition of the material. […] A repeated rotary evaporation attempt from DCM solution generated disordered Compound I Form A (FIG. 7, second spectrum from bottom) after the sample was secondary dried at ambient temperature under vacuum for 3 days, which provides further evidence that amorphous Compound I is not physically stable.
Crystallization studies were performed on this disordered material (Table 10) and solids were stirred in acetone and H2O for 4 days at ambient conditions. Both experiments generated crystalline Form A (FIG. 10, bottom two spectra).

Data set [3] in a line: Dynamic vapor sorption (DVS) analysis. It counts as physicochemical. Set-up: Hysteresis: unit not given here. Here is the method:
In one embodiment, the crystalline forms are characterized by Dynamic Vapor Sorption (DVS). The DVS profile is typically expressed by a diagram plotting the sample relative humidity (RH) versus the change in mass (%). The DVS profile provides information on hygroscopicity of the crystalline form at different RH conditions.
DVS (dynamic vapor sorption) analysis was carried out on Form A (Table 2, FIG. 3).

A short description of data set [4]: Amorphous solubility by slow addition from organic stock into aqueous media (UV/Vis scattering, DLS). The settings on record: for solubility: kinetic from dmso stock. It is filed as physicochemical. From the text:
Solubility: Generally, the solubility of an amorphous form is higher than that of the corresponding crystal form, due to the lack of crystalline lattice forces in the amorphous state. Solubility of the amorphous form of Compound I was studied by slow addition of the amorphous form from an organic stock solution into the pH 6.5 phosphate-buffered saline (PBS) solution or 0.5% wt simulated intestinal fluid (SIF) in pH 6.5 PBS. When the amorphous solubility is reached, a drug-rich phase forms which typically scatters light (e.g., liquid-liquid phase separation or LLPS), which can be detected by scattering of UV/Visible light and/or by dynamic light scattering (DLS).
No scattering event prior to crystallization was observed.

Data set [5] can be described thus: Approximate solubility by solvent aliquot addition, visual inspection. It counts as physicochemical. As to conditions: organic solvent or mixture, thermodynamic from solid. Here is the method: The approximate solubility of Compound I in various organic solvents was determined by adding solvent aliquots to weighed samples Compound I. Weighed samples of Compound I were treated with aliquots of the test solvents or solvent mixtures at ambient temperature. Complete dissolution of the test material was determined by visual inspection. Solubility was estimated based on the total solvent volume used to provide complete dissolution. The actual solubility may be greater than the value calculated because of the use of solvent aliquots that were too large or due to a slow rate of dissolution. If complete dissolution was not achieved during the experiment, the solubility is expressed as “less than” (<). If complete dissolution was achieved by only one aliquot addition, the value is reported as “larger than” (>).

Data set [6] can be described thus: Equilibrium solubility acquired at 24 hours. It is filed as physicochemical. As to conditions: organic solvent or mixture, thermodynamic from solid.
The mark [7] stands for this setting: target RH 95.0 %, sample RH 96.0 %.

As a reminder, the IC50 is the midpoint of a concentration-inhibition curve. In general, solubility refers to the concentration that dissolves in the medium under given conditions.

As for `CC(C)(c1ccc(OC[C@H](O)CNS(C)(=O)=O)cc1)c1cc(Cl)c(OC[C@H](O)CCl)c(Cl)c1` [Reference Compound X], inhibition in data set [1] was half-maximal at 1050 nM (IC50).
Turning to `CC(C)(c1ccc(OCc2ccnc(NS(C)(=O)=O)n2)cc1)c1cc(Cl)c(OCCCl)c(C#N)c1` [Material D], the “XRPD result after drying” value in data set [2] (50-52° C., vacuum, 3 d) is listed as “desolvate into Form A”.
In the case of `CC(C)(c1ccc(OCc2ccnc(NS(C)(=O)=O)n2)cc1)c1cc(Cl)c(OCCCl)c(C#N)c1` [Disordered], the “XRPD result after stirring” value in data set [2] (H2O) and in data set [2] (acetone) was “Form A” throughout.
With `CC(O)(CS(=O)(=O)c1ccc(F)cc1)C(=O)Nc1ccc(C#N)c(C(F)(F)F)c1` (stereo not drawn) [Bicalutamide], the IC50 in data set [1] is 306 nM.
With `CC(C)(c1ccc(OCc2ccnc(NS(C)(=O)=O)n2)cc1)c1cc(Cl)c(OCCCl)c(C#N)c1` [Form A, N-{4-[(4-{2-[3-chloro-4-(2-chloroethoxy)-5-cyanophenyl]propan-2-yl}phenoxy)methyl]pyrimidin-2-yl}methanesulfonamide], the “Solids recovered after DVS analysis, by XRPD” value in data set [3] (after DVS cycle) was “consistent with Form A”. The “Total weight gain during sorption” value in data set [3] (from 5% to 95% RH) was found to be 5.474%. Also, the “Weight gain during sorption” value in data set [3] (from 55% to 85% RH) worked out at 1.978 wt %; in data set [3] (from 85% RH to 95% RH), 3.106 wt %. In data set [3] (from 95% RH to 5% RH), the “Weight loss during desorption” value came to 5.472%. The “Sorp Mass Change” value in data set [3] (target RH 5.0 %, sample RH 4.9 %) was 0.000%; in data set [3] (target RH 15.0 %, sample RH 15.4 %) it was 0.055%; in data set [3] (target RH 25.0 %, sample RH 24.9 %), 0.111%; in data set [3] (target RH 45.0 %, sample RH 44.8 %), 0.242%; in data set [3] (target RH 55.0 %, sample RH 54.5 %) it was 0.390%; in data set [3] (target RH 65.0 %, sample RH […]), 0.906%. In addition, the “Sorp Mass Change” value in data set [3] (target RH 75.0 %, sample RH 74.5 %) was 1.567%; in data set [3] (target RH 85.0 %, sample RH 84.7 %) it was 2.368%; in data set [3] (setting [7]), 5.474%; in data set [3] (target RH […], sample RH 34.5 %) it was 0.169%. The “Desorp Mass Change” value in data set [3] (target RH 5.0 %, sample RH 5.4 %) worked out at 0.002%; in data set [3] (target RH 15.0 %, sample RH 16.1 %), 0.060%; in data set [3] (target RH 25.0 %, sample RH 25.6 %), 0.146%; in data set [3] (target RH 45.0 %, sample RH 45.6 %), 0.716%; in data set [3] (target RH 55.0 %, sample RH 55.5 %), 1.040%; in data set [3] (target RH 65.0 %, sample RH 65.6 %), 1.438%. Further, the “Desorp Mass Change” value in data set [3] (target RH 75.0 %, sample RH 75.5 %) was found to be 1.931%; in data set [3] (target RH 85.0 %, sample RH 85.8 %) it was 2.072%; in data set [3] (setting [7]) it was 5.474%; in data set [3] (target RH […], sample RH 35.3 %) it was 0.277%. Further, the Hysteresis in data set [3] (target RH 15.0 %) came to 0.013; in data set [3] (target RH 25.0 %), 0.036; in data set [3] (target RH 45.0 %) it was 0.474; in data set [3] (target RH 55.0 %) it was 0.650; in data set [3] (target RH 65.0 %), 0.452; in data set [3] (target RH 75.0 %), 0.364. In addition, the Hysteresis in data set [3] (target RH 85.0 %) came to 0.604; in data set [3] (target RH […]), 0.108. Moreover, the Hygroscopicity result in data set [3] (within 5%-55% RH) was “low hygroscopicity”; in data set [3] (within 55%-85% RH) it was “limited hygroscopicity”; in data set [3] (within 85%-95% RH), “significant hygroscopicity”. The “Relative stability, competitive slurry” value in data set [2] (Material C (with some Form A) and Form A in acetone, room temperature, 9 days) is given as “more stable than Material C”.
Consider `CC(C)(c1ccc(OCc2ccnc(NS(C)(=O)=O)n2)cc1)c1cc(Cl)c(OCCCl)c(C#N)c1` [Material B], for which, in data set [2], the Stability upon drying entry is given as “unstable upon drying”. In addition, the “XRPD result after drying” value in data set [2] (65-66° C., vacuum, 5 d) was “mixture of Form A and Material C”; in data set [2] (RT (ambient), on filter paper, 3 d), “disordered Material C”.
For `CC(C)(c1ccc(OCc2ccnc(NS(C)(=O)=O)n2)cc1)c1cc(Cl)c(OCCCl)c(C#N)c1` [Compound I, N-{4-[(4-{2-[3-chloro-4-(2-chloroethoxy)-5-cyanophenyl]propan-2-yl}phenoxy)methyl]pyrimidin-2-yl}methanesulfonamide], the Crystalline solubility entry in data set [4] is “very low”. Moreover, the solubility in data set [5] (dioxane (printed 'dioxant'), dioxant, ambient temperature, read-out: Solubility) was > 107000 µg/mL; in data set [5] (DCM, ambient temperature, read-out: Solubility), 20000 µg/mL (≈ 37.4 mM); in data set [5] (DMA, ambient temperature, read-out: Solubility), > 79000 µg/mL; in data set [5] (Et2O, ambient temperature, read-out: Solubility), < 2000 µg/mL; in data set [5] (MEK, ambient temperature, read-out: Solubility) it was 6000 µg/mL (≈ 11.2 mM); in data set [5] (MTBE, ambient temperature, read-out: Solubility), < 1000 µg/mL. The solubility in data set [5] (NMP, ambient temperature, read-out: Solubility) is > 117000 µg/mL; in data set [5] (THF, ambient temperature, read-out: Solubility) it was 54000 µg/mL (≈ 101 mM); in data set [5] (iPrOAc, ambient temperature, read-out: Solubility), < 1000 µg/mL; in data set [5] (p-dioxane, from observations on samples at much larger scales, read-out: Approximate solubility), 35000 to 103000 µg/mL (≈ 65.4 to 192 mM); in data set [5] (toluene, ambient temperature, read-out: Solubility), 1000 µg/mL (≈ 1.87 mM). The solubility at 24 h in data set [6] (ACN) was 2040 µg/mL (≈ 3.81 mM); in data set [6] (DMSO), > 12000 µg/mL; in data set [6] (EtOAc), 1970 µg/mL (≈ 3.68 mM); in data set [6] (EtOH), 170 µg/mL (≈ 0.317 mM); in data set [6] (MeOH) it was 210 µg/mL (≈ 0.392 mM); in data set [6] (acetone), 5300 µg/mL (≈ 9.9 mM). Moreover, the IC50 in data set [1] worked out at 535 nM.
In the case of `CC(C)(c1ccc(OCc2ccnc(NS(C)(=O)=O)n2)cc1)c1cc(Cl)c(OCCCl)c(C#N)c1` [amorphous form of Compound I], the solubility is > 25 µg/mL in data set [4] (0.5% wt simulated intestinal fluid in PBS, fassgf or other biorelevant, 0.5% SIF (pH 6.5)) and > 2.5 µg/mL in data set [4] (phosphate-buffered saline, aqueous buffer, pH 6.5 PBS). Moreover, the “Amorphous solubility relative to crystalline solubility” value in data set [4] (simulated intestinal media) was “at least 20 ×”. In addition, in data set [2] (ambient (RT), desiccator, about 10 days), the “XRPD result after storage” value is “disordered Form A”. Moreover, the Physical stability entry in data set [2] (ambient temperature) is “physically not stable”.
